What was measured:
[1] = Plasma levels after topical dermal administration; format: in vivo, rat; conditions: dermal application, 50 mg/kg, DMSO/distilled H2O or PG/H2O
Protocol: Female and male Wistar rats (200-250 g) were anaesthetized with 1 mL of zoletil (50 mg/kg) and xylazine (10 mg/kg; Lyppard, Australia), which was injected intraperitoneally. An area of 5×10 cm was shaved and marked on the lower abdominal area of the rat, on to which the dose of drug was applied. A stock solution containing 10 mg/ml of C5a antagonist was dissolved in solvents propylene glycol or dimethylsulfoxide at varying concentrations with water and smeared evenly on the shaved abdominal area of the rat with a spatula. A heating pad was used to maintain the body temperature of the rats and blood samoles were taken at 15 min intervals for the first hour, and after that at 1 hr intervals for a total period or 3 hours.
Blood samples were immediately added to tubes containing heparin (500 Units/μL) and centrifuged (11000×g). […] The fluid portions of the samples were placed in 1 mL Eppendorf tubes and stored until analysed.
These samples were transferred to 96 well plates and evaporated to dryness using a GeneVac centrifugal evaporator, then reconstituted in the wells with mobile phase (20 μL) Analysis of samples was performed by liquid chromatography (LCMS) using an Agilent 1100 series HPLC equipped with a well plate autosampler coupled with a PE Sciex Qstar Pulsar ESI-TOF mass spectrometer. Concentrations were determined from a standard curve of drug:internal standard peak area ratios. […]

[2] = test system: lower limb ischemia-reperfusion (I/R); test: Bilateral hindlimb ischemia-reperfusion injury in rats
Protocol: Rats were subjected to 2 hours bilateral hindlimb ischemia and 4 hours reperfusion. […] (1 mg/kg) i.v., either 10 min before ischemia or 10 min prior to reperfusion, or orally (10 mg/kg) 30 min prior to ischemia. Levels of circulating creatine kinase (CK), lactate dehydrogenase (LDH), alanine and aspartate aminotransferase (ALT/AST), creatinine, blood urea nitrogen (BUN), polymorphonuclear leukocytes (PMNs) and calcium (Ca^++) and potassium (K^+) ions were determined. These biochemical indices are known to reflect tissue or organ injury following I/R events. Other parameters measured included urinary protein levels, muscle edema and myeloperoxidase (MPO) concentrations in the lung, liver and muscle along with liver homogenate TNF-α concentrations.
The study was performed in accordance with guidelines from the National Health & Medical Research Council of Australia, and the experimental protocol approved by the University of Queensland Animal Ethics Committee. Female Wistar rats weighing 250-300 g were fasted overnight before being anaesthetized with the i.p. injection of 6 mg/kg xylazine and 120 mg/kg ketamine. Anesthesia was maintained throughout the study by additional injections of ketamine. […] Bilateral hindlimb ischemia was then induced through the application of latex o-rings (marking rings; Hayes Veterinary Supplies, Brisbane, Australia) above the greater trochanter of each hind limb. Following 2 hours of ischemia, the latex rings were cut and removed and limbs allowed to reperfuse for 4 hours. Six experimental groups were used: • (a) sham-operated, • (b) ischemia-only, • (c) I/R-only, • (d) I/R+C5a antagonist (1 mg/kg, i.v.) administered 10 min prior to ischemia, • (e) I/R+C5a antagonist (10 mg/kg, p.o.) administered 30 min prior to ischemia, and • (f) I/R+C5a antagonist (1 mg/kg, i.v.) administered 10 min prior to reperfusion.
All other groups underwent 2 hours of ischemia and 4 hours of reperfusion. Sham-operated, ischemia-only and I/R groups were infused with 7% ethanol/saline 10 min prior to ischemia, instead of drug. Blood was collected throughout the study from the tail vein, and serum or plasma was stored at either 4° C. or −20° C. for later biochemical assays. Urine was collected over the last hour of the study for the determination of urinary protein levels. At the completion of the experiment, rats were euthanased, and sections of the lungs, liver and gastrocnemius muscle removed and weighed for edema, neutrophil accumulation and liver TNF-α studies.
All experimental results are expressed as means±standard error of the mean (SEM). Data analysis was performed using GraphPad Prism 3.0 software (GraphPad Software, Inc. USA). Statistical comparisons were made to sham-operated and I/R-only groups, using a one-way analysis of variance followed by a Dunnett comparison post-test analysis. Statistical significance was assessed at P<0.05.
Circulating levels of creatine kinase (CK) were measured in serum samples taken immediately after ischemia, following 1, 2 and 3 hours reperfusion, and at the completion of the study using a […] kit (Sigma, St. Louis, USA) according to the manufacturer's instructions. Serum was also taken 10 min after tourniquet release for CK measurement in I/R-only animals. A 1:5 dilution was used for samples taken after 2 hours reperfusion.

[3] = I/R + 1 mg/kg i.v. pre-ischemia, 4 hours reperfusion
[4] = I/R + 1 mg/kg i.v. pre-reperfusion, 4 hours reperfusion
[5] = I/R + 10 mg/kg p.o. pre-ischemia, 4 hours reperfusion
[6] = i.v. 1 mg/kg just prior to reperfusion
[7] = prior to ischemia, i.v. 1 mg/kg or orally 10 mg/kg

CC(=O)N[C@@H](Cc1ccccc1)C(=O)N[C@H]1CCCNC(=O)[C@H](CCCNC(=N)N)NC(=O)[C@H](Cc2c[nH]c3ccccc23)NC(=O)[C@@H](CC2CCCCC2)NC(=O)[C@@H]2CCCN2C1=O [Compound 1, Ac-Phe-[Orn-Pro-dCha-Trp-Arg]]
appearance of the C5a antagonist in the circulating plasma [1]: ≤ 15 min
persistence of significant plasma levels [1]: at least 4 hr
Plasma Creatinine [2, 3]: 1.07 ± 0.07 mg/dL
Proteinuria [2, 3]: 36.4 ± 11.4 mg/dL
Serum BUN [2, 3]: 23.6 ± 1.6 mg/dL
Serum Ca++ [2, 3]: 2.46 ± 0.04 mmol/L
Serum K+ [2, 3]: 6.13 ± 0.18 mmol/L
Plasma Creatinine [2, 4]: 1.22 ± 0.05 mg/dL
Proteinuria [2, 4]: 41.2 ± 11.4 mg/dL
Serum BUN [2, 4]: 22.0 ± 2.2 mg/dL
Serum Ca++ [2, 4]: 2.45 ± 0.10 mmol/L
Serum K+ [2, 4]: 5.02 ± 0.32 mmol/L
Plasma Creatinine [2, 5]: 1.14 ± 0.14 mg/dL
Proteinuria [2, 5]: 45.8 ± 9.8 mg/dL
Serum BUN [2, 5]: 21.8 ± 2.1 mg/dL
Serum Ca++ [2, 5]: 2.49 ± 0.04 mmol/L
Serum K+ [2, 5]: 5.57 ± 0.58 mmol/L
MPO activity in hindlimb muscles, lungs and liver vs I/R-only rats ([2]; all 3 drug-treated groups): significant decreases
circulating PMN numbers vs I/R-only rats ([2]; all 3 drug-treated groups, 4 hours reperfusion): significantly decreased
adverse effects of the drug alone (changes in injury markers vs sham-operated animals) ([2]; drug alone): no adverse effects
circulating creatine kinase (CK) levels vs I/R-only rats [2, 6]: significant inhibition
circulating lactate dehydrogenase (LDH) levels vs I/R-only rats [2, 6]: significant inhibition
circulating creatine kinase (CK) levels vs I/R-only rats [2, 7]: significantly decreased levels
circulating lactate dehydrogenase (LDH) levels vs I/R-only rats [2, 7]: significantly decreased levels
